Laboratory results reported in patent publication US6514519B1, “Edelfosin for the treatment of brain tumors” (Med-Mark Pharma GmbH, priority 1998, dated 2003).
Several values for one entry are separate records, joined by “and”; a condition that tells them apart may be missing. Identical values can stand only once. Entries after “also recorded” stand apart in the source; their conditions may differ.

Key:
[1] = adverse drug reactions (ADR) investigated during phase II studies; assay type: in vivo, humans
Excerpt: During phase II studies, in accordance with requirements the adverse drug reactions (ADR) were also investigated. The result is shown in Table 2: The grading of the symptoms as transferred to the case report forms took place in accordance with the internationally used WHO classification. The assessment “yes” means that a symptom is caused by the medicine.

[2] = system: human leukemic cells; conditions: cited from earlier work
[3] = system: brain tumors; experiment: clinical phase II study with edelfosine: result of therapy and survival time; assay type: in vivo, humans; conditions: for Result of therapy (clin.): assessed on clinical symptoms (clin.)
Description: The patients which are listed below in Table 1, with their status before and after treatment, were treated with edelfosine in the phase II study. It is important to emphasize in this connection that virtually all the patients have previously been treated or were from the outset untreatable (inoperable tumors). All the patients were treated with an average of 300 mg of edelfosine/day (range of variation between 50 and 600 mg). […] The carrier medium/active ingredient mixture is drunk in different dose levels/portion, which differed from patient to patient, distributed over the day. Administration is accordingly oral; the treatment is entirely on an outpatient basis, unless the clinical picture makes admission to hospital unavoidable.
The number and duration of previous treatments before the start of therapy with a medicine are crucial for assessing the therapeutic efficacy=survival time and quality of survival; the survival time is in such cases always measured from the time at which the therapy with a medicine is started. The time which has elapsed from diagnosis until the start of treatment initially plays no direct part in this. However, it must be taken into account when the survival time of a last resort therapy (as edelfosine in this case) is compared with that of therapies which are usually started immediately after diagnosis (this is the case for chemotherapy and radiation studies).
For virtually all the patients, a tumor which continued to grow after all the therapies used led to the edelfosine therapy, i.e. the tumor was progressive (cf. Table 1, column “Tumor activity”). The specification of “clinical” progression means in this connection that the tumor was progressive on the basis of deteriorating clinical symptoms (for example increase in headaches, congestion in the head, dizziness, tendency to fall, neurological symptoms in general), but no objective study (for example CT) was available for comparison.
The pharmacodynamic effect, i.e. the effect of a medicine directly on the tumor, is normally measured 2 months after starting a therapy. This pharmacodynamic effect is defined differently depending on which class the substance belongs to (that is to say cytostatic, hormone product, immunomodulator etc.). […] The aim of therapy is accordingly a cessation of tumor growth (no change).
The survival time is measured from the start of therapy with a medicine. The state of the art survival time data reported in the literature for the treatment of brain tumors are usually based on either adjuvant treatment of patients, that is to say directly after surgical removal of a tumor, or else on treatment immediately after making the diagnosis.

[4] = system: healthy cells; conditions: healthy vs degenerate cells; cited from earlier work
[5] = ADR caused by edelfosine, number of 150 courses
[6] = ADR caused by edelfosine, number of 159 courses
[7] = ADR not caused by edelfosine, number of 149 courses
[8] = ADR not caused by edelfosine, number of 150 courses
[9] = ADR not caused by edelfosine, number of 159 courses
[10] = ADR possibly caused by edelfosine, number of 150 courses
[11] = ADR possibly caused by edelfosine, number of 159 courses
[12] = no symptom reported, number of 149 courses
[13] = no symptom reported, number of 150 courses
[14] = patients with Karnofsky index <70% (N=16)

CCCCCCCCCCCCCCCCCCOC[C@H](COP(=O)([O-])OCC[N+](C)(C)C)OC (racemic) [edelfosine, 1-octadecyl-2-methyl-sn-glycero-3-phosphocholine]
Appetite, Grade 1 yes [1, 5]: 4 | Appetite, Grade 2 yes [1, 5]: 1 | Appetite, Grade 3 yes [1, 5]: 2 | Constipation, Grade 1 yes [1, 5]: 3 | Diarrhea, Grade 1 yes [1, 5]: 5 | Diarrhea, Grade 2 yes [1, 5]: 1 | Nausea/vomiting, Grade 1 yes [1, 6]: 12 | Nausea/vomiting, Grade 2 yes [1, 6]: 2 | CNS toxicity, Grade 1 no ([1]; ADR not caused by edelfosine, number of 135 courses): 1 | Skin changes, Grade 4 no ([1]; ADR not caused by edelfosine, number of 148 courses): 3 | Alopecia, Grade 1 no [1, 7]: 3 | Alopecia, Grade 2 no [1, 7]: 1 | Alopecia, Grade 3 no [1, 7]: 3 | Alopecia, Grade 4 no [1, 7]: 16 | Pain, Grade 1 no [1, 7]: 7 | Pain, Grade 2 no [1, 7]: 5 | Pain, Grade 3 no [1, 7]: 3 | Periph. neurop., Grade 1 no [1, 7]: 18 | Appetite, Grade 1 no [1, 8]: 4 | Appetite, Grade 2 no [1, 8]: 1 | Appetite, Grade 3 no [1, 8]: 4 | Appetite, Grade 4 no [1, 8]: 1 | Arrhythmia, Grade 1 no [1, 8]: 5 | Constipation, Grade 1 no [1, 8]: 1 | Diarrhea, Grade 2 no [1, 8]: 1 | Dyspnea, Grade 1 no [1, 8]: 4 | Dyspnea, Grade 2 no [1, 8]: 3 | Dyspnea, Grade 3 no [1, 8]: 1 | Dyspnea, Grade 4 no [1, 8]: 1 | Fever, Grade 1 no [1, 8]: 1 | Fever, Grade 2 no [1, 8]: 7 | Hemorrhages, Grade 1 no [1, 8]: 2 | Infection, Grade 1 no [1, 8]: 3 | Infection, Grade 2 no [1, 8]: 1 | Nausea/vomiting, Grade 1 no [1, 9]: 1 | Nausea/vomiting, Grade 2 no [1, 9]: 8 | Nausea/vomiting, Grade 3 no [1, 9]: 2 | CNS toxicity, Grade 1 ? ([1]; ADR possibly caused by edelfosine, number of 135 courses): 1 | Alopecia, Grade 1 ? ([1]; ADR possibly caused by edelfosine, number of 149 courses): 1 | Appetite, Grade 1 ? [1, 10]: 5 | Appetite, Grade 2 ? [1, 10]: 2 | Appetite, Grade 3 ? [1, 10]: 2 | Constipation, Grade 1 ? [1, 10]: 3 | Diarrhea, Grade 1 ? [1, 10]: 1 | Nausea/vomiting, Grade 1 ? [1, 11]: 5 | Nausea/vomiting, Grade 2 ? [1, 11]: 6 | cumulative toxicity ([1]; after several years of uninterrupted therapy): no cumulative toxicity | reversibility of observed ADR symptoms ([1]; edelfosine therapy): reversible within a very short time (hours) | CNS toxicity, Grade 0 ([1]; no symptom reported, number of 135 courses): 133 | Skin changes, Grade 0 ([1]; no symptom reported, number of 148 courses): 145 | Alopecia, Grade 0 [1, 12]: 125 | Hematuria, Grade 0 [1, 12]: 149 | Pain, Grade 0 [1, 12]: 133 | Periph. neurop., Grade 0 [1, 12]: 131 | Stomatitis, Grade 0 [1, 12]: 149 | Appetite, Grade 0 [1, 13]: 123 | Arrhythmia, Grade 0 [1, 13]: 145 | Constipation, Grade 0 [1, 13]: 143 | Diarrhea, Grade 0 [1, 13]: 142 | Dyspnea, Grade 0 [1, 13]: 141 | Fever, Grade 0 [1, 13]: 142 | Heart failure, Grade 0 [1, 13]: 150 | Hemorrhages, Grade 0 [1, 13]: 148 | Infection, Grade 0 [1, 13]: 146 | Allergy, Grade 0 ([1]; no symptom reported, number of 151 courses): 151 | Nausea/vomiting, Grade 0 ([1]; no symptom reported, number of 159 courses): 121 | esophagoscopy, gastroscopy findings ([1]; patients with nausea/vomiting (gastric pressure) during edelfosine therapy): no pathological findings at all | adverse drug reactions of Pat. No. 542 ([1]; therapy of about 6 years, total dose of about 640 g): negligible adverse drug reactions; also recorded: no ADRs at all | apoptosis [2]: reinduction of apoptosis | Result of therapy ([3]; Anaplastic oligodendroglioma): No further progression | Result of therapy ([3]; Astrocytoma II): No further progression | Result of therapy ([3]; Astrocytoma II/III): No further progression | Survival time ([3]; Astrocytoma II/III): 412 days | Result of therapy (clin.) ([3]; Astrocytoma II): No further progression | Result of therapy ([3]; Ependymoblastoma): Progression | Survival time ([3]; Ependymoblastoma): 196 days | Result of therapy ([3]; Glioblastoma (Ø histol.)): Progression | Result of therapy (clin.) ([3]; Glioblastoma (Ø histol.)): No further progression | Result of therapy ([3]; Glioblastoma IV): Progression | Survival time ([3]; Glioblastoma IV): 143 days and 266 days | Result of therapy ([3]; Glioblastoma IV + Gliosarcoma): No further progression | Survival time ([3]; Glioblastoma IV + Gliosarcoma): 203 days | Result of therapy (clin.) ([3]; Glioblastoma IV): No further progression | Result of therapy (clin.) ([3]; Glioblastoma multiforme): No further progression | survival of Pat. No. 247 ([3]; Glioblastoma, many years after completion of therapy): survived until the 8th year | Result of therapy ([3]; Gliosarcoma): No further progression | Survival time ([3]; Gliosarcoma): 110 days | Survival time ([3]; Oligoastrocytoma II): 270 days | Result of therapy (clin.) ([3]; Oligoastrocytoma II): No further progression | Result of therapy ([3]; Oligoastrocytoma IV): No further progression | Survival time ([3]; Oligoastrocytoma IV): 1602 days | Result of therapy ([3]; Oligodendroglioma III): No further progression | Survival time ([3]; Oligodendroglioma III): 573 days | Result of therapy ([3]; Oligodendroglioma III/IV): No further progression | Survival time ([3]; Oligodendroglioma III/IV): 2141 days | Result of therapy ([3]; Oligodendroglioma IV): No further progression | Survival time ([3]; Oligodendroglioma IV): 572 days | patients with clinical stabilization/improvement although tumor progressive according to imaging ([3]; after 2 months): 2% | treated patients with tumor still progressive ([3]; after 2 months): about 24% | treated patients with stabilization on the basis of clinical symptoms (cNC=clinical no change) ([3]; after 2 months of therapy, no objective study): approx. 14% | treated patients with cessation of tumor growth (NC=no change) ([3]; imaging study after 2 months of therapy): about 56% | maximum gain in survival time ([3]; patients with Karnofsky index <70%): > 20 months | average survival time [3, 14]: about 260 days | range of variation of survival time [3, 14]: 90 to 619 days | fate in healthy cells after uptake [4]: degraded in healthy cells
